Results as given in patent publication US7189351B2, “D-tagatose as an anti-biofilm agent” (priority 2001, dated 2007).

Columns and labels:
[1] = test system: staphylococcus lesion of the leg; test: D-tagatose enhancing antibiotic activity (Example 4); format: in vivo, human; conditions: one patient; five grams with each of three meals daily plus oral penicillin; in the course of a week
From the text: A patient with a staphylococcus lesion of the leg is placed on oral penicillin by their physician. […] The formation of plaque in the infected region protects the interior microorganisms from the antibiotic coursing through the bloodstream, and the plaque organisms develop increased resistance. The physician prescribes five grams of D-tagatose be taken with each of three meals daily, along with continued taking of the penicillin.

[2] = prevention of stroke (Example 6); format: in vivo, human; conditions: one patient with high blood pressure; 5 grams with each of three daily meals
From the text: A patient has gradually developed high blood pressure over the years. Their doctor places them on a blood pressure medicine when their pressure reaches 135/90 mm Hg. Despite gradual increases in dosage of the medicine, and trials of new medicines, over time their blood pressure continues to increase until reaching 145/100 mm Hg. At this point the physician fears the possibility of a stroke.

[3] = test system: total bacteria and coliform; test: sterilization of food-handling machinery, wash before Clean-In-Place (Example 7); conditions: 200 mM in sterile water run through equipment immediately prior to CIP
Method: A cheese-making plant processes raw milk into cheese. The equipment includes many tubes, tubules, pipes and other surfaces that come in direct contact with the milk. Between runs, standard “Clean-In-Place” (CIP) operations are performed in which acid and oxidants are coursed through the equipment to contact all surfaces and are then washed out with sterile water. However, the formation of microbial plaques protects the microorganisms in the interiors of the plaques, and some survive the CIP. To overcome this problem, an initial step is added to the CIP whereby a stream of 200 mM D-tagatose in sterile water is run through the equipment, contacting all surfaces, immediately prior to instituting the CIP. […] Accordingly, the D-tagatose wash is made part of the CIP.

[4] = test system: Actinomyces naeslundii PK947/Streptococcus oralis C104; test: reversal of coaggregation, visual score; format: cell-based; set-up: key to reversal of coaggregation: *: Coaggregations were reversed by both D-galactose and D-tagatose; conditions: for reversal of coaggregation: pair Cl04/PK947, coaggregation score 2 without sugar; for coaggregation score: pair PK947/C104, water score 2, scale 0 no visible to 4 maximum coaggregation
Method: (§1) Fifteen oral isolates, including both early colonizers (Streptococcus and Actinomyces) and late colonizers (Fusobacterium, Porphyromonas, Prevotella, Veillonella, Capnocytophaga, and Actinobacillus), were tested for their ability to coaggregate with each other, followed by testing for the reversal of coaggregation by the addition of D-tagatose. Bacterial strains used were of human gingival crevice origin. The coaggregation was examined visually by a scoring system ranging from 0 for no visible coaggregation to 4 for maximum coaggregation [Cisar J. O., Kolenbrander P. E., and McIntire F. C., “Specificity of coaggregation reactions between human oral streptococci and strains of Actinomyces viscosus or Actinomyces naeslundii”, Infect. Immun., 24:742–752. 1979]. D-Tagatose, at a concentration of less than 750 mM, completely reversed the coaggregation of 17 (60%) of 28 strong coaggregating pairs (with a coaggregation score of 2 or higher) tested. […] These D-tagatose sensitive coaggregations were D-galactose reversible as well.
(§2) Pairs of various species of oral bacteria were tested for coaggregation, and for reversal of coaggregation when D-tagatose or D-galactose was administered.

[5] = test system: Actinomyces naeslundii PK947/Streptococcus oralis SO34; test: reversal of coaggregation, visual score; format: cell-based; set-up: key to reversal of coaggregation: *: Coaggregations were reversed by both D-galactose and D-tagatose; conditions: for coaggregation score: pair PK947/SO34, water score 3, scale 0 no visible to 4 maximum coaggregation; for reversal of coaggregation: pair SO34/PK947, coaggregation score 3 without sugar
Method: as §1, §2

[6] = test system: Actinomyces naeslundii PK29/Streptococcus mitis J22; test: reversal of coaggregation, visual score; format: cell-based; set-up: key to reversal of coaggregation: *: Coaggregations were reversed by both D-galactose and D-tagatose; conditions: for reversal of coaggregation: pair J22/PK29, coaggregation score 4 without sugar; for coaggregation score: pair PK29/J22, water score 4, scale 0 no visible to 4 maximum coaggregation
Method: as §1, §2

[7] = test system: Actinomyces naeslundii PK947/Streptococcus mitis J22; test: reversal of coaggregation, visual score; format: cell-based; set-up: key to reversal of coaggregation: *: Coaggregations were reversed by both D-galactose and D-tagatose; conditions: for reversal of coaggregation: pair J22/PK947, coaggregation score 2 without sugar; for coaggregation score: pair PK947/J22, water score 2, scale 0 no visible to 4 maximum coaggregation
Method: as §1, §2

[8] = test system: biofilm on the heart valve; test: prophylaxis against prosthetic valve endocarditis (Example 5); format: in vivo, human; conditions: one patient; 10 grams with each of three daily meals, three days before until one week after surgery
From the text: An adult patient requires removal of their infected mitral valve and its replacement with a prosthetic valve. One of the principal hazards of such an operation is that the valve region of the heart will become infected, frequently with streptococci that form a biofilm protecting internal microorganisms from antibiotics, and also permitting such organisms to develop increasing resistance. In order to prevent the buildup of a biofilm infection, the physician places their patient on tagatose treatment for three days prior to the surgery. On each such day, the patient consumes 10 grams of D-tagatose with each of their three daily meals. The resulting D-tagatose blood level is sufficient to preclude the formation of a biofilm on the heart valve. The treatment is continued until one week after the operation and the patient is well on the road to recovery.

dental plaque = test: D-tagatose in foods to control dental plaque (Example 3); format: in vivo, human; conditions: third monthly check-up
From the text: Forty subjects, half male, half female, ranging from 4 to 80 years in age, daily consume foodstuffs, such as cakes, cookies, pies, hard candy, hot and cold cereals, cold fruit drinks, iced tea, coffee and tea, that are sweetened with conventional sweeteners including sucrose and high fructose corn syrup (HFCS). After several monthly check-ups, these subjects are found to have high dental plaque indices, and many of them are diagnosed with plaque-related oral diseases. At this point, the test foodstuffs are switched such that D-tagatose is used as a one-for-one replacement for the table sugar and HFCS previously used. No other changes are made in the test regimen.

oral bacteria = conditions: known from literature; cited from earlier work

Row | SMILES | outcome of staphylococcus lesion [1] | risk of stroke [2] | total bacteria and coliform counts in cheese-making equipment [3] | reversal of coaggregation [4] | coaggregation score ([4]; sugar 200 mM) | coaggregation score ([5]; sugar 200 mM) | reversal of coaggregation [5] | reversal of coaggregation [6] | coaggregation score ([6]; sugar 750 mM) | reversal of coaggregation [7] | coaggregation score ([7]; sugar 200 mM) | infection after prosthetic valve replacement [8] | plaque indices (dental plaque; forty subjects, D-tagatose one-for-one replacement for table sugar and HFCS in foodstuffs) | plaque-related oral diseases (dental plaque; subjects who formerly exhibited disease) | reversal of coaggregations that would otherwise form dental plaque (oral bacteria) | coaggregation score ([4]; sugar 143 mM) | coaggregation score ([5]; sugar 143 mM) | coaggregation score ([6]; sugar 143 mM) | coaggregation score ([7]; sugar 143 mM)
1 | O=C(CO)[C@@H](O)[C@@H](O)[C@H](O)CO [D-Tagatose] | the lesion disappears | significantly reduced | reducing the total bacteria and the coliform counts to acceptable regulatory levels | 2* | 0 | 0 | 3* | 4* | 1 | 2* | 0 | Infection has been avoided | significantly lowered | complete or nearly complete recovery |  |  |  |  | 
2 | O=C[C@H](O)[C@@H](O)[C@@H](O)[C@H](O)CO [D-Galactose] |  |  |  | 2* |  |  | 3* | 4* |  | 2* |  |  |  |  | reverse the coaggregations of oral bacteria | 0 | 0 | 1 | 0
